According to patent publication US7575930B2, “Method for analyzing oligosaccharides from blood plasma” (priority 2005, dated 2009):

Columns and labels:
ATIII = ATIII (Homo sapiens, UniProt P01008); experiment: Affinity for ATIII; assay type: binding
[1] = Monitoring of the plasma concentration of the main oligosaccharides of a VLMWH in human volunteers (plasma filtration + anion-exchange HPLC); assay type: in vivo
Experimental: (§1) A plasma sample with a volume of between 100 and 1000 μl is withdrawn and, if appropriate, the internal standard is added to the latter.
(§2) After homogenization, the resulting solution is introduced into a 30 kD Ultrafree 05 ultrafiltration cartridge (Millipore) rinsed beforehand with 250 μl of water by centrifuging at 10 000 rev/min for 5 minutes. The plasma is introduced into the upper part of the cartridge once or twice, if the amounts to be filtered are greater than 500 μl.
(§3) The cartridge is centrifuged at 10 000 rev/min for between 1 and 2 hours and then the filtrate is withdrawn. If appropriate, the second part of the plasma to be filtered is introduced into the upper part of the cartridge and the latter is again centrifuged. The exact amount of plasma introduced will have been weighed. The cartridge is centrifuged until the protein residue in the upper part of the cartridge represents no more than approximately 10% of the initial part.
(§4) The filtrate is withdrawn and 210 μl of 3M KCl per ml of plasma filtered are added to the concentrate.
(§5) After homogenization, the cartridge is centrifuged at 10 000 rev/min for between 1 and 4 hours. The cartridge is centrifuged until the protein residue in the upper part of the cartridge represents no more than approximately 10% of the initial part.
(§6) The second filtrate is withdrawn and 210 μl of 3M KCl per ml of plasma filtered are added a second time to the concentrate.
(§7) The third filtrate is withdrawn and 250 μl of water per ml of plasma filtered are added.
(§8) The filtrates are combined and diluted 5 fold in water, and the whole is injected directly in anion-exchange HPLC. Immediately before injection, the pH of the injected solution is adjusted to 3 by addition of 1N HCl.
(§9) The filtered plasma is analyzed by anion-exchange HPLC.
(§10) The columns used are IonPAc As11 columns (Dionex), with a length of 25 cm and an internal diameter of 2 mm. The detector used is a UV spectrophotometer equipped with an array of diodes.
(§11) The whole of the […] is injected after adjustment of the pH to 3 by addition of N HCl. The flow rate chosen is 0.22 ml/min; the column temperature is 40° C.
(§12) Elution is carried out in gradient mode. The two solutions used are:
(§13) Solvent A: NaH2PO4 2.5 mM, brought to pH 2.9 by addition of H3PO4
(§14) Solvent B: NaClO4 1N, NaH2PO4 2.5 mM, brought to pH 3.0 by addition of H3PO4
(§15) The elution gradient is as follows:
(§16) T=0 min: % B=3; T=40 min: % B=60; T=60 min: % B=80
A VLMWH with an average molecular weight of 2500 Da is administered at the target dose of 1.4 mg/kg to human volunteers. Blood samples are withdrawn at the times 0, 0.25 h, 0.5 h, 0.75 h, 1 h, 1.25 h, 1.5 h, 2 h, 2.5 h, 3 h, 3.5 h, 4 h, 4.5 h, 5 h, 6 h, 7 h, 8 h, 9 h, 10 h, 12 h, 14 h and 24 h after administration.
As the VLMWH used is a complex mixture of oligosaccharides, the study was limited to certain components chosen from this mixture.

[2] = Monitoring of the plasma concentration of 3 octasaccharides in beagle dogs after subcutaneous administration (plasma filtration + anion-exchange HPLC); assay type: in vivo, male dogs of the beagle breed; details: 0.5 mg/kg each
Experimental: as §1, §2, §3, §4, §5, §6, §7, §8, §9, §10, §11, §12, §13, §14, §15, §16
The evolution of a mixture of three octasaccharides in the blood of male dogs of the beagle breed is monitored. These 3 octasaccharides, symbolized ΔIIaIIsIsIs, ΔIsIIaIIsIs and ΔIIaIIsIsIs^1,6-anhydro, are the main affinity octasaccharides of the octasaccharide fractions of Lovenox®.
The mixture is administered subcutaneously to 3 male dogs of the beagle breed at a target dose with regard to each of these 3 constituents of 0.5 mg/kg. The administration solution is a 0.9% NaCl solution of the mixture of the 3 octasaccharides at the target concentration of 0.5 mg/ml. Blood samples of 5 ml are withdrawn at the times 0, 0.25 h, 0.5 h, 1 h, 2 h, 4 h, 6 h, 8 h, 24 h, 30 h and 48 h after administration. The blood samples withdrawn are collected in tubes containing 400 μl of a CTAD (citrate, theophylline, adenosine, dipyridamole) mixture. After homogenization, the solution is centrifuged at 3000 g at 15° C. for 15 min. The plasma supernatant is recovered and stored at −20° C. until use.
For the treatment of the plasma before HPLC injection, approximately 1 ml of plasma is withdrawn and weighed, to which 50 μl of a solution of the internal standard at a concentration of approximately 0.02 g/l are added.
The internal standard is chosen so that it is structurally as close as possible to the products to be analyzed. Its structure is given below.
The tetrasaccharide used makes it possible to correct the potentional influence of the variations in the extraction yield.
The plasma is treated and analyzed by HPLC.

ATIII, sequence (P01008 33-464, species assumed): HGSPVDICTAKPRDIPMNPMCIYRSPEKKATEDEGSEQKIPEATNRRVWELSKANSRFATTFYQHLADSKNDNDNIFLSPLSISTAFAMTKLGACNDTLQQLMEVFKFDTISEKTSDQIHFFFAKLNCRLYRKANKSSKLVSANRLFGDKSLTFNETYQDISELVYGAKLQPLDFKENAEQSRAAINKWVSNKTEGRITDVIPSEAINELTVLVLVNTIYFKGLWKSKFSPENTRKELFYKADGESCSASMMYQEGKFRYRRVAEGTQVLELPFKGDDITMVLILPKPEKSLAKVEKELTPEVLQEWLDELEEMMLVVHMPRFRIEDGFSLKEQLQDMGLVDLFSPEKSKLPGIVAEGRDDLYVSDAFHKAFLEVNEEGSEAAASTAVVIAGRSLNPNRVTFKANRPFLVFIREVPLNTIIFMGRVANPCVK

affinity for ATIII (ATIII): high affinity for ATIII
plasma concentration ([1]; 0 h after administration of VLMWH (2500 Da) 1.4 mg/kg): 0 nM
plasma concentration ([1]; 0.25 h after administration of VLMWH (2500 Da) 1.4 mg/kg): 10 nM
plasma concentration ([1]; 0.5 h after administration of VLMWH (2500 Da) 1.4 mg/kg): 30 nM
plasma concentration ([1]; 0.75 h after administration of VLMWH (2500 Da) 1.4 mg/kg): 20 nM
plasma concentration ([1]; 1 h after administration of VLMWH (2500 Da) 1.4 mg/kg): 30 nM
plasma concentration ([1]; 1.25 h after administration of VLMWH (2500 Da) 1.4 mg/kg): 40 nM
plasma concentration ([1]; 1.5 h after administration of VLMWH (2500 Da) 1.4 mg/kg): 40 nM
plasma concentration ([1]; 2 h after administration of VLMWH (2500 Da) 1.4 mg/kg): 40 nM
plasma concentration ([1]; 2.5 h after administration of VLMWH (2500 Da) 1.4 mg/kg): 30 nM
plasma concentration ([1]; 3 h after administration of VLMWH (2500 Da) 1.4 mg/kg): 30 nM
plasma concentration ([1]; 3.5 h after administration of VLMWH (2500 Da) 1.4 mg/kg): 40 nM
plasma concentration ([1]; 4 h after administration of VLMWH (2500 Da) 1.4 mg/kg): 20 nM
plasma concentration ([1]; 4.5 h after administration of VLMWH (2500 Da) 1.4 mg/kg): 40 nM
plasma concentration ([1]; 5 h after administration of VLMWH (2500 Da) 1.4 mg/kg): 30 nM
plasma concentration ([1]; 6 h after administration of VLMWH (2500 Da) 1.4 mg/kg): 20 nM
plasma concentration ([1]; 7 h after administration of VLMWH (2500 Da) 1.4 mg/kg): 40 nM
plasma concentration ([1]; 8 h after administration of VLMWH (2500 Da) 1.4 mg/kg): 20 nM
plasma concentration ([1]; 9 h after administration of VLMWH (2500 Da) 1.4 mg/kg): 20 nM
plasma concentration ([1]; 10 h after administration of VLMWH (2500 Da) 1.4 mg/kg): 20 nM
plasma concentration ([1]; 12 h after administration of VLMWH (2500 Da) 1.4 mg/kg): 30 nM
plasma concentration ([1]; 14 h after administration of VLMWH (2500 Da) 1.4 mg/kg): 20 nM
plasma concentration ([1]; 24 h after administration of VLMWH (2500 Da) 1.4 mg/kg): 10 nM
plasma concentration ([2]; Dog 1, 0 h after subcutaneous administration): 0 nM
plasma concentration ([2]; Dog 1, 0.25 h after subcutaneous administration): 40 nM
plasma concentration ([2]; Dog 1, 0.5 h after subcutaneous administration): 180 nM
plasma concentration ([2]; Dog 1, 1 h after subcutaneous administration): 330 nM
plasma concentration ([2]; Dog 1, 2 h after subcutaneous administration): 590 nM
plasma concentration ([2]; Dog 1, 4 h after subcutaneous administration): 470 nM
plasma concentration ([2]; Dog 1, 6 h after subcutaneous administration): 360 nM
plasma concentration ([2]; Dog 1, 8 h after subcutaneous administration): 280 nM
plasma concentration ([2]; Dog 1, 24 h after subcutaneous administration): 40 nM
plasma concentration ([2]; Dog 1, 30 h after subcutaneous administration): 20 nM
plasma concentration ([2]; Dog 1, 48 h after subcutaneous administration): 0 nM
plasma concentration ([2]; Dog 2, 0 h after subcutaneous administration): 0 nM
plasma concentration ([2]; Dog 2, 0.25 h after subcutaneous administration): 50 nM
plasma concentration ([2]; Dog 2, 0.5 h after subcutaneous administration): 100 nM
plasma concentration ([2]; Dog 2, 1 h after subcutaneous administration): 200 nM
plasma concentration ([2]; Dog 2, 2 h after subcutaneous administration): 320 nM
plasma concentration ([2]; Dog 2, 4 h after subcutaneous administration): 300 nM
plasma concentration ([2]; Dog 2, 6 h after subcutaneous administration): 370 nM
plasma concentration ([2]; Dog 2, 8 h after subcutaneous administration): 260 nM
plasma concentration ([2]; Dog 2, 24 h after subcutaneous administration): 40 nM
plasma concentration ([2]; Dog 2, 30 h after subcutaneous administration): 10 nM
plasma concentration ([2]; Dog 2, 48 h after subcutaneous administration): 0 nM
plasma concentration ([2]; Dog 3, 0 h after subcutaneous administration): 0 nM
plasma concentration ([2]; Dog 3, 0.25 h after subcutaneous administration): 60 nM
plasma concentration ([2]; Dog 3, 0.5 h after subcutaneous administration): 170 nM
plasma concentration ([2]; Dog 3, 1 h after subcutaneous administration): 240 nM
plasma concentration ([2]; Dog 3, 2 h after subcutaneous administration): 330 nM
plasma concentration ([2]; Dog 3, 4 h after subcutaneous administration): 450 nM
plasma concentration ([2]; Dog 3, 6 h after subcutaneous administration): 360 nM
plasma concentration ([2]; Dog 3, 8 h after subcutaneous administration): 290 nM
plasma concentration ([2]; Dog 3, 24 h after subcutaneous administration): 40 nM
plasma concentration ([2]; Dog 3, 30 h after subcutaneous administration): 20 nM
plasma concentration ([2]; Dog 3, 48 h after subcutaneous administration): 0 nM
SMILES: CC(=O)NC1C(OC2C(C(=O)O)OC(OC3C(COS(=O)(=O)O)OC(OC4C(C(=O)O)OC(OC5C(COS(=O)(=O)O)OC(OC6C(C(=O)O)OC(OC7C(COS(=O)(=O)O)OC(O)C(NS(=O)(=O)O)C7O)C(OS(=O)(=O)O)C6O)C(NS(=O)(=O)O)C5O)C(OS(=O)(=O)O)C4O)C(NS(=O)(=O)O)C3OS(=O)(=O)O)C(O)C2O)OC(COS(=O)(=O)O)C(OC2OC(C(=O)O)=CC(O)C2O)C1O (centres unmarked) [ΔIIaIIsIsIs]
